Measurements: ChEMBL document CHEMBL3885881, “DrugMatrix”

Species: Rattus norvegicus
Assay: DrugMatrix - Regimen: Daily Repeat
Type: toxicity, organism-based, Sprague-Dawley
Set-up: regimen Daily Repeat, gender Male, age 6-8 weeks
Details: in vivo, po, route oral GAVAGE, vehicle .5 % CMC; for ABSOLUTE BASOPHIL / ABSOLUTE EOSINOPHIL / ABSOLUTE LYMPHOCYTE / ABSOLUTE MONOCYTE / ABSOLUTE SEGMENTED NEUTROPHIL / BASOPHIL / EOSINOPHIL / ERYTHROCYTE COUNT / HEMATOCRIT / HEMOGLOBIN / LEUKOCYTE COUNT / LYMPHOCYTE / MEAN CORPUSCULAR HEMOGLOBIN / MEAN CORPUSCULAR HEMOGLOBIN CONCENTRATION / MEAN CORPUSCULAR VOLUME / MONOCYTE / NEUTROPHIL / NUCLEATED RED BLOOD CELLS / PLATELET COUNT: tissue Blood; for ALANINE AMINOTRANSFERASE / ALBUMIN / ALKALINE PHOSPHATASE / ASPARTATE AMINOTRANSFERASE / BLOOD UREA NITROGEN / CARBON DIOXIDE / CHLORIDE / CHOLESTEROL / CREATINE PHOSPHOKINASE / CREATININE / GLUCOSE / LACTATE DEHYDROGENASE / LIPASE / PHOSPHORUS / POTASSIUM / SODIUM / TOTAL BILIRUBIN / TOTAL PROTEIN / URIC ACID: tissue Plasma
[1] = 10 mg/kg, 72 h, dose level Low, time 3 day
[2] = 10 mg/kg, 120 h, dose level Low, time 5 day
[3] = 350 mg/kg, 72 h, dose level High, time 3 day

CCC1(c2ccc(N)cc2)CCC(=O)NC1=O (centres undefined) [AMINOGLUTETHIMIDE]
ABSOLUTE BASOPHIL [1]: 0 CELLS/uL | ABSOLUTE EOSINOPHIL [1]: 0 CELLS/uL | ABSOLUTE LYMPHOCYTE [1]: 11710.67 CELLS/uL | ABSOLUTE MONOCYTE [1]: 267.33 CELLS/uL | ABSOLUTE SEGMENTED NEUTROPHIL [1]: 2622 CELLS/uL | BASOPHIL [1]: 0% | EOSINOPHIL [1]: 0% | ERYTHROCYTE COUNT [1]: 5.37 x10E6/uL | HEMATOCRIT [1]: 34.23% | HEMOGLOBIN [1]: 13.47 G/DL | LEUKOCYTE COUNT [1]: 14.6 x10E3/uL | LYMPHOCYTE [1]: 80.33% | MEAN CORPUSCULAR HEMOGLOBIN [1]: 25.1 pg | MEAN CORPUSCULAR HEMOGLOBIN CONCENTRATION [1]: 39.33 G/DL | MEAN CORPUSCULAR VOLUME [1]: 63.77 fL | MONOCYTE [1]: 1.67% | NEUTROPHIL [1]: 18% | NUCLEATED RED BLOOD CELLS [1]: 0 /100WBC | PLATELET COUNT [1]: 1364.33 x10E3/uL | ALANINE AMINOTRANSFERASE [1]: 54.67 u/L | ALBUMIN [1]: 4.07 G/DL | ALKALINE PHOSPHATASE [1]: 367 u/L | ASPARTATE AMINOTRANSFERASE [1]: 87.33 u/L | BLOOD UREA NITROGEN [1]: 17 mg/dL | CARBON DIOXIDE [1]: 26 mmol/L | CHLORIDE [1]: 102 MEQ/L | CHOLESTEROL [1]: 69.33 mg/dL | CREATINE PHOSPHOKINASE [1]: 357.33 u/L | CREATININE [1]: 0.16 mg/dL | GLUCOSE [1]: 160 mg/dL | LACTATE DEHYDROGENASE [1]: 241.67 u/L | LIPASE [1]: 9.33 u/L | PHOSPHORUS [1]: 13 mg/dL | POTASSIUM [1]: 6.52 MEQ/L | SODIUM [1]: 143.27 MEQ/L | TOTAL BILIRUBIN [1]: 0.2 mg/dL | TOTAL PROTEIN [1]: 5.67 G/DL | URIC ACID [1]: 1.83 mg/dL | ABSOLUTE BASOPHIL [2]: 0 CELLS/uL | ABSOLUTE EOSINOPHIL [2]: 0 CELLS/uL | ABSOLUTE LYMPHOCYTE [2]: 14655 CELLS/uL | ABSOLUTE MONOCYTE [2]: 54.33 CELLS/uL | ABSOLUTE SEGMENTED NEUTROPHIL [2]: 1457.33 CELLS/uL | BASOPHIL [2]: 0% | EOSINOPHIL [2]: 0% | ERYTHROCYTE COUNT [2]: 5.82 x10E6/uL | HEMATOCRIT [2]: 35.6% | HEMOGLOBIN [2]: 14.1 G/DL | LEUKOCYTE COUNT [2]: 16.17 x10E3/uL | LYMPHOCYTE [2]: 90.67% | MEAN CORPUSCULAR HEMOGLOBIN [2]: 24.23 pg | MEAN CORPUSCULAR HEMOGLOBIN CONCENTRATION [2]: 39.67 G/DL | MEAN CORPUSCULAR VOLUME [2]: 61.17 fL | MONOCYTE [2]: 0.33% | NEUTROPHIL [2]: 9% | NUCLEATED RED BLOOD CELLS [2]: 0 /100WBC | PLATELET COUNT [2]: 1044 x10E3/uL | ALANINE AMINOTRANSFERASE [2]: 56 u/L | ALBUMIN [2]: 4.33 G/DL | ALKALINE PHOSPHATASE [2]: 463 u/L | ASPARTATE AMINOTRANSFERASE [2]: 91.67 u/L | BLOOD UREA NITROGEN [2]: 16.67 mg/dL | CARBON DIOXIDE [2]: 27 mmol/L | CHLORIDE [2]: 100 MEQ/L | CHOLESTEROL [2]: 67 mg/dL | CREATINE PHOSPHOKINASE [2]: 282 u/L | CREATININE [2]: 0.2 mg/dL | GLUCOSE [2]: 155.67 mg/dL | LACTATE DEHYDROGENASE [2]: 347.67 u/L | LIPASE [2]: 12.33 u/L | PHOSPHORUS [2]: 11.8 mg/dL | POTASSIUM [2]: 6.27 MEQ/L | SODIUM [2]: 142.47 MEQ/L | TOTAL BILIRUBIN [2]: 0.17 mg/dL | TOTAL PROTEIN [2]: 5.87 G/DL | URIC ACID [2]: 1.8 mg/dL | ABSOLUTE BASOPHIL [3]: 0 CELLS/uL | ABSOLUTE EOSINOPHIL [3]: 0 CELLS/uL | ABSOLUTE LYMPHOCYTE [3]: 12308.33 CELLS/uL | ABSOLUTE MONOCYTE [3]: 135 CELLS/uL | ABSOLUTE SEGMENTED NEUTROPHIL [3]: 1890 CELLS/uL | BASOPHIL [3]: 0% | EOSINOPHIL [3]: 0% | ERYTHROCYTE COUNT [3]: 6.41 x10E6/uL | HEMATOCRIT [3]: 37.93% | HEMOGLOBIN [3]: 15.13 G/DL | LEUKOCYTE COUNT [3]: 14.33 x10E3/uL | LYMPHOCYTE [3]: 84.67% | MEAN CORPUSCULAR HEMOGLOBIN [3]: 23.57 pg | MEAN CORPUSCULAR HEMOGLOBIN CONCENTRATION [3]: 39.87 G/DL | MEAN CORPUSCULAR VOLUME [3]: 59.1 fL | MONOCYTE [3]: 1% | NEUTROPHIL [3]: 14.33% | NUCLEATED RED BLOOD CELLS [3]: 0 /100WBC | PLATELET COUNT [3]: 1180.67 x10E3/uL | ALANINE AMINOTRANSFERASE [3]: 78.33 u/L | ALBUMIN [3]: 3.73 G/DL | ALKALINE PHOSPHATASE [3]: 251.67 u/L | ASPARTATE AMINOTRANSFERASE [3]: 137.67 u/L | BLOOD UREA NITROGEN [3]: 12 mg/dL | CARBON DIOXIDE [3]: 27.33 mmol/L | CHLORIDE [3]: 100 MEQ/L | CHOLESTEROL [3]: 103.67 mg/dL | CREATINE PHOSPHOKINASE [3]: 398 u/L | CREATININE [3]: 0.14 mg/dL | GLUCOSE [3]: 120 mg/dL | LACTATE DEHYDROGENASE [3]: 202.67 u/L | LIPASE [3]: 10.33 u/L | PHOSPHORUS [3]: 12.03 mg/dL | POTASSIUM [3]: 5.62 MEQ/L | SODIUM [3]: 144.37 MEQ/L | TOTAL BILIRUBIN [3]: 0.13 mg/dL | TOTAL PROTEIN [3]: 5.23 G/DL | URIC ACID [3]: 1.73 mg/dL
